Assay results: US12091701B2, “Screening method for candidate substances for active component to prevent or treat at least one disease selected from the group consisting of renal hypofunction, chronic kidney disease and kidney failure” (KARYDO THERAPEUTIX, INC., priority 2016, dated 2024)

Columns and labels:
[1] = system: FGF23 gene (the skull); test: qRT-PCR of FGF23 in the skull of HP model mice given soluble human Oscar-Fc fusion protein; type: in vivo, mice (C57BL/6N); conditions: mice on diet with high phosphorus content (2% inorganic phosphorus) 4 weeks; 10 mg/kg intraperitoneally weekly, five times; vs physiological saline; normalized to Maea; p=0.026; n=5 to 6
From the text: (§1) Subsequently, the mixture was vortexed vigorously for 15 seconds.

[2] = system: PRP genes (Prb1, Prh1, Prp2, and Prpmp5) (the parotid glands); conditions: mice on diet with high phosphorus content 4 weeks; 10 mg/kg intraperitoneally weekly, five times; vs physiological saline; n=5 to 6
Experimental: After the wet weights of the collected organs and tissue were measured, the organs and tissue were rapidly frozen in liquid nitrogen and stored at −80° C.

[3] = system: FGF23 in plasma; test: Measurement of concentration of FGF23 in plasma by ELISA method in HP model mice; type: in vivo, mice (C57BL/6N); conditions: mice on diet with high phosphorus content 4 weeks; 10 mg/kg intraperitoneally weekly, five times; vs physiological saline; p=0.049
Experimental: The concentration of FGF23 in plasma was measured using an ELISA kit sold by KAINOS Laboratories, Inc. (TCY4000). A plasma sample cryopreserved in a freezer was thawed on ice, and the sample undiluted or the sample diluted 5-fold with standard solution 1 (FGF-23 concentration, 0 pg/ml) supplied with the kit was used for measurement.
50 μl of the diluted sample or a sample for a calibration curve was added to each well of an ELISA plate supplied with the kit. The plate was sealed, followed by stirring and incubating at room temperature for 2 hours. After the two hours, the sample in each well was aspirated and discarded. 300 μl of a wash solution supplied with the kit was then added to each well, and the wash solution was removed. This operation was performed four times. After the wash solution was thoroughly removed, 100 μl of an enzyme-labeled antibody solution (FGF-23 Conjugate) supplied with the kit was added to each well, and the plate was sealed, followed by stirring and incubating at room temperature for 1 hour. After the 1 hour, the sample in each well was aspirated and discarded. […] Absorbance at 450 nm was then measured with an absorbance microplate reader (Multiskan GO, Thermo Fisher Scientific Inc.). The concentration of FGF23 in plasma was calculated by making a calibration curve from the measurement result of recombinant FGF23 supplied with the kit.

[4] = system: Fgg gene (kidneys); test: qRT-PCR of Fgg gene (fibrinogen) in the kidneys of HP model mice given soluble Oscar-Fc fusion protein; type: in vivo, mice (C57BL/6N); conditions: HP4W_sOscar vs HP4W_NS; diet with high phosphorus content 4 weeks; p=0.00071; n=5 to 6
From the text: as §1
To evaluate the effect of the soluble Oscar-Fc fusion protein on kidney function, the expression of a kidney function marker was confirmed in the kidneys of HP4W_NS, HP4W_sOscar, and LP4W of Reference Example 2.

soluble human Oscar-Fc fusion protein: Soluble human Oscar-Fc fusion protein of SEQ ID NO: 2 (human Oscar sequence, hinge, human IgG1); inhibits ligand binding to Oscar
expression of FGF23 in the skull (qRT-PCR) [1]: suppressed
expression of PRP genes (Prb1, Prh1, Prp2, and Prpmp5) in the parotid glands (qRT-PCR) [2]: suppressed
increase in the concentration of FGF23 in plasma (ELISA) [3]: statistically significantly suppressed
expression of the Fgg gene in the kidneys (qRT-PCR) [4]: significantly suppressed
